{
  "source": "patent US5118392A",
  "about": "“Separation of trichloroethylene from a butyl alcohol by extractive distillation” (priority 1991, dated 1992)",
  "assay_type_in_all_cases": "physicochemical",
  "key": {"[1]": {"assay": "Glass perforated plate rectification column (7.3 theoretical plates), trichloroethylene / 2-butanol", "text": "The overhead analysis was 98.2% trichloroethylene, 1.8% 2-butanol and the bottoms analysis was 65.6% trichloroethylene, 34.4% 2-butanol. This gives an average relative volatility of 1.59 for each theoretical plate."}, "[2]": {"assay": "Vapor-liquid equilibrium still, trichloroethylene-isobutanol azeotrope with extractive distillation agent", "settings": "trichloroethylene from isobutanol, Table 5", "text": "(§1) The data in Tables 2, 3, 5, 7, 8, 10 and 11 was obtained in a vapor-liquid equilibrium still. In every case, the starting mixture was the trichloroethylene-butanol azeotrope. The relative volatilities are listed for each of the agents.\nSeventy grams of the trichloroethylene-isobutanol azeotrope and 30 grams of n-octanol were charged to the vapor-liquid equilibrium still and refluxed for five hours."}, "[3]": {"assay": "Vapor-liquid equilibrium still, trichloroethylene-2-butanol azeotrope with extractive distillation agent", "text": "as §1\nSeventy grams of the trichloroethylene-2-butanol azeotrope and 30 grams of 2-methyl-1-pentanol were charged to the vapor-liquid equilibrium still and refluxed for two hours."}, "[4]": {"assay": "Glass perforated plate rectification column (7.3 theoretical plates), trichloroethylene / n-butanol", "settings": "2 hrs", "text": "Dimethylsulfoxide gave a relative volatility of 1.28 after two hours of operation.\nA solution comprising 300 grams of trichloroethylene and 15 grams of n-butanol was placed in the stillpot of a 7.3 theoretical plate glass perforated plate rectification column. […] After two hours operation, overhead and bottoms samples were collected and analysed. The overhead analysis was 98.2% trichloroethylene, 1.8% n-butanol and the bottoms analysis was 90.1% trichloroethylene, 9.9% n-butanol. This gives an average relative volatility of 1.28 for each theoretical plate."}, "[5]": {"assay": "Glass perforated plate rectification column (7.3 theoretical plates), trichloroethylene / n-butanol", "settings": "1 hr"}, "[6]": {"assay": "Vapor-liquid equilibrium still, trichloroethylene-n-butanol azeotrope with extractive distillation agent"}, "[7]": {"settings": "Example 1, refluxed seven hours"}},
  "data": [
    {"smiles": "CCCC(C)CO", "note": "(stereo not drawn) [2-Methyl-1-pentanol]", "values": [
      {"measurement": "Relative Volatility (per theoretical plate)", "setting": "[1]; 1 hr", "result": 1.49},
      {"measurement": "Relative Volatility (average, per theoretical plate)", "setting": "[1]; 2 hrs", "result": 1.59},
      {"measurement": "Weight % 2-Butanol", "setting": "[1]; bottoms, 1 hr", "result": 30.7, "unit": "%"},
      {"measurement": "Weight % C2 H Cl3", "setting": "[1]; bottoms, 1 hr", "result": 69.3, "unit": "%"},
      {"measurement": "Weight % 2-Butanol", "setting": "[1]; bottoms, 2 hrs", "result": 34.4, "unit": "%"},
      {"measurement": "Weight % C2 H Cl3", "setting": "[1]; bottoms, 2 hrs", "result": 65.6, "unit": "%"},
      {"measurement": "Weight % 2-Butanol", "setting": "[1]; overhead, 1 hr", "result": 2.4, "unit": "%"},
      {"measurement": "Weight % C2 H Cl3", "setting": "[1]; overhead, 1 hr", "result": 97.6, "unit": "%"},
      {"measurement": "Weight % 2-Butanol", "setting": "[1]; overhead, 2 hrs", "result": 1.8, "unit": "%"},
      {"measurement": "Weight % C2 H Cl3", "setting": "[1]; overhead, 2 hrs", "result": 98.2, "unit": "%"},
      {"measurement": "Relative Volatility", "setting": "[2]", "result": 2.2},
      {"measurement": "liquid composition, 2-butanol", "setting": "[3]; Example 5, refluxed two hours", "result": 19.5, "unit": "%"},
      {"measurement": "liquid composition, trichloroethylene", "setting": "[3]; Example 5, refluxed two hours", "result": 80.5, "unit": "%"},
      {"measurement": "vapor composition, 2-butanol", "setting": "[3]; Example 5, refluxed two hours", "result": 11.9, "unit": "%"},
      {"measurement": "vapor composition, trichloroethylene", "setting": "[3]; Example 5, refluxed two hours", "result": 88.1, "unit": "%"},
      {"measurement": "Relative Volatility", "setting": "[3]; Example 5: 70 g azeotrope, 30 g agent, refluxed two hours", "result": 1.75},
      {"measurement": "Relative Volatility", "setting": "[3]; trichloroethylene from 2-butanol, Table 7", "result": 1.6}
    ]},
    {"smiles": "C[S+](C)[O-]", "note": "[Dimethylsulfoxide]", "values": [
      {"measurement": "Relative Volatility (average, per theoretical plate)", "setting": "[4]", "result": 1.28},
      {"measurement": "Weight % C2 H Cl3", "setting": "[4]; bottoms", "result": 90.1, "unit": "%"},
      {"measurement": "Weight % n-Butanol", "setting": "[4]; bottoms", "result": 9.9, "unit": "%"},
      {"measurement": "Weight % C2 H Cl3", "setting": "[4]; overhead", "result": 98.2, "unit": "%"},
      {"measurement": "Weight % n-Butanol", "setting": "[4]; overhead", "result": 1.8, "unit": "%"},
      {"measurement": "Relative Volatility (per theoretical plate)", "setting": "[5]", "result": 1.22},
      {"measurement": "Weight % C2 H Cl3", "setting": "[5]; bottoms", "result": 88.2, "unit": "%"},
      {"measurement": "Weight % n-Butanol", "setting": "[5]; bottoms", "result": 11.8, "unit": "%"},
      {"measurement": "Weight % C2 H Cl3", "setting": "[5]; overhead", "result": 96.9, "unit": "%"},
      {"measurement": "Weight % n-Butanol", "setting": "[5]; overhead", "result": 3.1, "unit": "%"},
      {"measurement": "liquid composition, n-butanol", "setting": "[6]; [7]", "result": 2.9, "unit": "%"},
      {"measurement": "liquid composition, trichloroethylene", "setting": "[6]; [7]", "result": 97.1, "unit": "%"},
      {"measurement": "vapor composition, n-butanol", "setting": "[6]; [7]", "result": 2.3, "unit": "%"},
      {"measurement": "vapor composition, trichloroethylene", "setting": "[6]; [7]", "result": 97.7, "unit": "%"},
      {"measurement": "Relative Volatility", "setting": "[6]; Example 1: 60 g azeotrope, 30 g agent, refluxed seven hours", "result": 1.25},
      {"measurement": "Relative Volatility", "setting": "[6]; trichloroethylene from n-butanol, Table 2", "result": 1.3}
    ]}
  ]
}
